Like-named read-outs stand apart in the source and are kept apart here.
Assays:
HeLaS3 cells [1] = conditions: liposome with DOPE, 0.5 μg pCMVβ
Experimental: (§1) Without sonication, liposomes were prepared at 60° C. by combining DOPE with one of the following:
(§2) The resulting liposomes were used to transfect HeLaS3 and Huh7 cells in vitro with the reporter plasmid pCMVβ (Clontech). Transfection efficiency values, obtained by taking OD measurements after cell-lysis and β-Gal activity assay, were compared to efficiencies obtained in parallel with a commercially available liposome-preparation (Lipofectamine, Gibco LTI) and given as percentage of Lipofectamine efficiency. In each transfection, 0.5 μg of pCMVβ (isolated with EndoFree, QIAGEN) was used per well of a 96 well plate. The DNA was diluted to 50 μl with DMEM medium (Gibco LTI) and combined with 1, 2, 3 and 4 μl of the liposome preparations subsequently diluted to 50 μl with DMEM medium. DNA and liposome solutions were mixed and applied to the cells for 6 hours at 37° C., 5% CO2. Afterwards, medium was changed to DMEM containing 10% fetal calf serum. Cells were lysed after 48 h incubation at 37° C., 5% CO2.
(§3) Twofold determinations each were performed. The values were averaged and the highest efficiency (optimum) within a row was given as percentage value of the highest efficiency (optimum) obtained with Lipofectamine.

Huh7 cells = conditions: liposome with DOPE, 0.5 μg pCMVβ
Experimental: as §1, §2, §3

HeLaS3 cells [2] = conditions: for Results (%) HeLaS3 (transfection efficiency as percentage of Lipofectamine efficiency): liposome with DOPE, 1 μg pCMVβ, optimum of 1-4 μl liposome
Experimental: (§4) Liposomes were prepared at 60° C. by combining 10-3-10 (Propandiyl-1,3-bis(decyl dimethylammonium bromide) and DOPE (as described in Example 3), with and without sonication.
(§5) Liposomes were used to transfect HeLaS3 and COS7 cells in vitro with the reporter plasmid pCMVβ (Clontech). Transfection efficiencies, as obtained by optical density (OD) measurements after cell-lysis and β-Gal activity assay, were compared to efficiencies obtained in parallel with a commercially available liposome-preparation (Lipofectamine, Gibco LTI) and given as percentage of Lipofectamine efficiency. For each transfection, 1 μg of pCMVβ (isolated with EndoFree, QIAGEN) was used per well of a 96-well plate. The DNA was diluted to 50 μl with DMEM medium (Gibco LTI) and combined with 1, 2, 3 and 4 μl of the liposome preparations subsequently diluted to 50 μl with DMEM medium. DNA and liposome solutions were mixed and applied to the cells for 6 hours at 37° C., 5% CO2. Afterwards, medium was changed to DMEM containing 10% fetal calf serum. Cells were lysed after 48 h incubation at 37° C., 5% CO2.
as §3

COS7 cells = conditions: liposome with DOPE, 1 μg pCMVβ, optimum of 1-4 μl liposome
Experimental: as §4, §5, §3

[3] = X(DOPE) 0.50, without sonication
[4] = X(DOPE) 0.60, without sonication
[5] = X(DOPE) 0.70, without sonication
[6] = X(DOPE) 0.80, without sonication

Propandiyl-1,3-bis(decyl dimethylammonium bromide) [10-3-10]
Results (%) HeLaS3 (transfection efficiency as percentage of Lipofectamine efficiency) (HeLaS3 cells [1]; [3]): 241% | Results (%) HeLaS3 (transfection efficiency as percentage of Lipofectamine efficiency) (HeLaS3 cells [1]; [4]): 293% | Results (%) HeLaS3 (transfection efficiency as percentage of Lipofectamine efficiency) (HeLaS3 cells [1]; [5]): 223% | Results (%) HeLaS3 (transfection efficiency as percentage of Lipofectamine efficiency) (HeLaS3 cells [1]; [6]): 118% | Results (%) Huh7 (transfection efficiency as percentage of Lipofectamine efficiency) (Huh7 cells; [3]): 80% | Results (%) Huh7 (transfection efficiency as percentage of Lipofectamine efficiency) (Huh7 cells; [4]): 83% | Results (%) Huh7 (transfection efficiency as percentage of Lipofectamine efficiency) (Huh7 cells; [5]): 54% | Results (%) Huh7 (transfection efficiency as percentage of Lipofectamine efficiency) (Huh7 cells; [6]): 39% | Results (%) HeLaS3 (transfection efficiency as percentage of Lipofectamine efficiency) (HeLaS3 cells [2]; X(DOPE) 0.20, sonic. for 300 s): 39% | Results (%) HeLaS3 (transfection efficiency as percentage of Lipofectamine efficiency) (HeLaS3 cells [2]; X(DOPE) 0.20, w/o sonication): 39% | Results (%) HeLaS3 (transfection efficiency as percentage of Lipofectamine efficiency) (HeLaS3 cells [2]; X(DOPE) 0.35, sonic. for 300 s): 39% | Results (%) HeLaS3 (transfection efficiency as percentage of Lipofectamine efficiency) (HeLaS3 cells [2]; X(DOPE) 0.35, w/o sonication): 61% | Results (%) HeLaS3 (transfection efficiency as percentage of Lipofectamine efficiency) (HeLaS3 cells [2]; X(DOPE) 0.50, sonic. for 300 s): 47% | Results (%) HeLaS3 (transfection efficiency as percentage of Lipofectamine efficiency) (HeLaS3 cells [2]; X(DOPE) 0.50, w/o sonication): 115% | Results (%) HeLaS3 (transfection efficiency as percentage of Lipofectamine efficiency) (HeLaS3 cells [2]; X(DOPE) 0.65, sonic. for 300 s): 83% | Results (%) HeLaS3 (transfection efficiency as percentage of Lipofectamine efficiency) (HeLaS3 cells [2]; X(DOPE) 0.65, w/o sonication): 275% | cell-type specificity compared with Lipofectamine (HeLaS3 cells [2]; liposomes with DOPE, HeLaS3 versus COS7): more cell-type specific than Lipofectamine | Results % COS7 (transfection efficiency as percentage of Lipofectamine efficiency) (COS7 cells; X(DOPE) 0.20, sonic. for 300 s): 6% | Results % COS7 (transfection efficiency as percentage of Lipofectamine efficiency) (COS7 cells; X(DOPE) 0.20, w/o sonication): 6% | Results % COS7 (transfection efficiency as percentage of Lipofectamine efficiency) (COS7 cells; X(DOPE) 0.35, sonic. for 300 s): 6% | Results % COS7 (transfection efficiency as percentage of Lipofectamine efficiency) (COS7 cells; X(DOPE) 0.35, w/o sonication): 6% | Results % COS7 (transfection efficiency as percentage of Lipofectamine efficiency) (COS7 cells; X(DOPE) 0.50, sonic. for 300 s): 6% | Results % COS7 (transfection efficiency as percentage of Lipofectamine efficiency) (COS7 cells; X(DOPE) 0.50, w/o sonication): 7% | Results % COS7 (transfection efficiency as percentage of Lipofectamine efficiency) (COS7 cells; X(DOPE) 0.65, sonic. for 300 s): 8% | Results % COS7 (transfection efficiency as percentage of Lipofectamine efficiency) (COS7 cells; X(DOPE) 0.65, w/o sonication): 26%

— patent US6733777B2, “Cationic reagents of transfection” (Qiagen GmbH, priority 1996, dated 2004)
